In US5288709A, “Erythromycin derivatives” (priority 1991, dated 1994):
≈ marks a conversion by molar mass, not a printed value. Like-named read-outs stand apart in the source and are kept apart here.

Legend:
Assay in all cases: In-vitro antimicrobial activity primary screen (agar dilution MIC)
Format in all cases: cell-based
[1] = test system: Staphylococcus aureus CMX 503A; details: Staphylococcus aureus, CMX503A, 24 h, BHI agar, 20-24 h, read-out: MIC
Experimental: (§1) The antimicrobial spectra of several of the compounds of the present invention were tested as described below.
(§2) Twelve petri dishes containing successive aqueous dilutions of the test compounds, mixed with 10 mL of sterilized Brain Heart Infusion (BHI) agar (Difco 0418-01-5), were prepared. Each plate was inoculated with 1:100 (or 1:10 for slow growing strains (primarily Micrococcus and Streptococcus) dilutions of up to 32 different microorganisms, using a Steers replicator block. The inoculated plates were incubated at 35 37° C. for 20-24 hours. In addition, a control plate, using BHI agar containing no test compound, was prepared and incubated at the beginning and the end of each test.
(§3) An additional plate containing a compound having known susceptibility patterns for the organisms being tested and belonging to the same antibiotic class as the test compounds was also prepared and incubated as a further control, as well as to provide test-to test comparability. Erythromycin A was used for this purpose.
(§4) After incubation, each plate was read. The MIC (minimum inhibitory concentration) is defined as the lowest concentration of test compound yielding no growth, a slight haze, or sparsely isolated colonies on the inoculum spot as compared to the growth control containing no test compound.

[2] = test system: Staphylococcus aureus CMX 686B; details: CMX686B, BHI agar, 20-24 h, read-out: MIC
Experimental: as §1, §2, §3, §4

[3] = test system: Staphylococcus aureus CMX 553; details: Staphylococcus aureus, CMX553, 24 h, BHI agar, 20-24 h, read-out: MIC
Experimental: as §1, §2, §3, §4

Escherichia coli H560 = details: Escherichia coli, H560, 24 h
Experimental: as §1, §2
(§5) An additional plate containing a compound having known susceptibility patterns for the organisms being tested and belonging to the same antibiotic class as the test compounds was also prepared and incubated as a further control, as well as to provide test-to test comparability.
as §4

[4] = test system: Pseudomonas aeruginosa K799/61; details: Pseudomonas aeruginosa, K799/61, 24 h
Experimental: as §1, §2, §5, §4

Acinetobacter SP CMX 669 = details: Acinetobacter, SPCMX669, 24 h
Experimental: as §1, §2, §5, §4

[5] = test system: Pseudomonas aeruginosa A5007; details: Pseudomonas aeruginosa, A5007, 24 h
Experimental: as §1, §2, §5, §4

Escherichia coli JUHL = details: Escherichia coli JUHL, BHI agar, 20-24 h
Experimental: as §1, §2, §5, §4

[6] = test system: Streptococcus pyrogenes EES61; details: BHI agar, 20-24 h
Experimental: as §1, §2, §5, §4

[7] = test system: Micrococcus luteus ATCC 9341; details: 20-24 h
Experimental: as §1, §2, §5, §4

[8] = test system: Streptococcus pyrogenes 2548 INDUC; details: Streptococcus, 2548INDUC, 24 h, BHI agar, 20-24 h
Experimental: as §1, §2, §5, §4

Escherichia coli DC-2 = details: Escherichia coli DC-2, BHI agar, 20-24 h
Experimental: as §1, §2, §5, §4

[9] = test system: Streptococcus agalactiae CMX 508; details: Streptococcus agalactiae, CMX508, 24 h, BHI agar, 20-24 h
Experimental: as §1, §2, §5, §4

[10] = test system: Staphylococcus aureus A5177; details: Staphylococcus aureus, A5177, 24 h, Staphylococcus aureus A5177; BHI agar, 20-24 h
Experimental: as §1, §2, §5, §4

[11] = test system: Enterococcus faecium ATCC 8043; details: Enterococcus faecium, ATCC8043, 24 h
Experimental: as §1, §2, §5, §4

[12] = test system: Enterobacter aerogenes ATCC 13048; details: Klebsiella aerogenes
Experimental: as §1, §2, §5, §4

[13] = test system: Pseudomonas aeruginosa BMH10; details: Pseudomonas aeruginosa, BMH10, 24 h, BHI agar, 20-24 h
Experimental: as §1, §2, §5, §4

[14] = test system: Providencia stuartii CMX 640
Experimental: as §1, §2, §5, §4

[15] = test system: Klebsiella pneumoniae ATCC 8045
Experimental: as §1, §2, §5, §4

[16] = test system: Staphylococcus epidermidis 3519; details: BHI agar, 20-24 h
Experimental: as §1, §2, §5, §4

[17] = test system: Streptococcus bovis A5169; details: Streptococcus equinus, BHI agar, 20-24 h
Experimental: as §1, §2, §5, §4

Escherichia coli SS = details: Escherichia coli, 24 h, BHI agar, 20-24 h
Experimental: as §1, §2, §5, §4

[18] = test system: Staphylococcus aureus ATCC 6538P; details: Staphylococcus aureus, ATCC6538P, 24 h, BHI agar, 20-24 h
Experimental: as §1, §2, §5, §4

Pseudomonas cepacia 2961 = details: BHI agar, 20-24 h
Experimental: as §1, §2, §5, §4

Staphylococcus aureus 45 = details: BHI agar, 20-24 h, read-out: MIC
Experimental: as §1, §2, §5, §4

[19] = test system: Staphylococcus aureus 45 RAR2; details: Staphylococcus aureus, 45RAR2, 24 h, BHI agar, 20-24 h
Experimental: as §1, §2, §5, §4

[20] = test system: Pseudomonas aeruginosa K799/WT; details: Pseudomonas aeruginosa, K799/WT, 24 h
Experimental: as §1, §2, §5, §4

[21] = test system: Micrococcus luteus ATCC 4698; details: Micrococcus luteus, ATCC4698, 24 h, BHI agar, 20-24 h
Experimental: as §1, §2, §5, §4

Structure (SMILES) | MIC [1] [µg/mL] | MIC [2] [µg/mL] | MIC [3] [µg/mL] | MIC [5] [µg/mL] | MIC [8] [µg/mL] | MIC [9] [µg/mL] | MIC [10] [µg/mL] | MIC [11] [µg/mL] | MIC [13] [µg/mL] | MIC (Escherichia coli SS) [µg/mL] | MIC [18] [µg/mL] | MIC (Staphylococcus aureus 45) [µg/mL] | MIC [19] [µg/mL] | MIC [20] [µg/mL] | MIC [21] [µg/mL] | other results
CC[C@H]1OC(=O)[C@H](C)[C@@H](O[C@H]2C[C@@](C)(OC)[C@H](N)[C@H](C)O2)[C@H](C)[C@@H](O[C@@H]2O[C@H](C)C[C@H](N(C)C)[C@H]2O)[C@](C)(O)C[C@@H](C)[C@@H]2O[C@@]1(C)C(=O)[C@H]2C [Example 8, (4"R,9S)-4"-Amino-9-deoxo-4",11,12-trideoxy-9,12-epoxy 11-oxoerythromycin A] | 0.2 (≈ 0.28 µM) | 0.2 (≈ 0.28 µM) | 0.1 (≈ 0.14 µM) | > 100 | 0.39 (≈ 0.546 µM) | 0.02 (≈ 0.028 µM) | 0.39 (≈ 0.546 µM) | 0.05 (≈ 0.0699 µM) | 100 (≈ 140 µM) | 0.2 (≈ 0.28 µM) | 0.2 (≈ 0.28 µM) | 0.2 (≈ 0.28 µM) | 0.2 (≈ 0.28 µM) | > 100 | 0.05 (≈ 0.0699 µM) | MIC (Escherichia coli H560): 25 µg/mL (≈ 35 µM); MIC [4]: 0.78 µg/mL (≈ 1.09 µM); MIC (Acinetobacter SP CMX 669): 6.2 µg/mL (≈ 8.67 µM); MIC (Escherichia coli JUHL; read-out: MIC): 100 µg/mL (≈ 140 µM); MIC ([6]; read-out: MIC): 0.01 µg/mL (≈ 0.014 µM); MIC ([7]; Micrococcus luteus, ATCC9341, 24 h, BHI agar): 0.02 µg/mL (≈ 0.028 µM); MIC (Escherichia coli DC-2; DC2, read-out: MIC): 100 µg/mL (≈ 140 µM); MIC ([12]; ATCC13048, Enterobacter aerogenes ATCC 13048, BHI agar, 20-24 h, read-out: MIC): > 100 µg/mL; MIC ([14]; CMX640, Providencia stuartii CMX 640, BHI agar, 20-24 h, read-out: MIC): > 100 µg/mL; MIC ([15]; ATCC8045, Klebsiella pneumoniae ATCC 8045, BHI agar, 20-24 h, read-out: MIC): 100 µg/mL (≈ 140 µM); MIC ([16]; read-out: MIC): 0.2 µg/mL (≈ 0.28 µM); MIC ([17]; A5169, 24 h): 0.05 µg/mL (≈ 0.0699 µM); MIC (Pseudomonas cepacia 2961; Burkholderia cepacia, read-out: MIC): > 100 µg/mL
CC[C@H]1OC(=O)[C@H](C)[C@@H](O[C@H]2C[C@@](C)(OC)[C@@H](N)[C@H](C)O2)[C@H](C)[C@@H](O[C@@H]2O[C@H](C)C[C@H](N(C)C)[C@H]2O)[C@](C)(O)C[C@@H](C)[C@@H]2O[C@@]1(C)C(=O)[C@H]2C [Example 14, (4"S,9S)-4"-Amino-9-deoxo-4",11,12-trideoxy-9,12-epoxy-11-oxoerythromycin A] | 0.39 (≈ 0.546 µM) | 0.39 (≈ 0.546 µM) | 0.2 (≈ 0.28 µM) | > 100 | 3.1 (≈ 4.34 µM) | 0.05 (≈ 0.0699 µM) | 3.1 (≈ 4.34 µM) | 0.1 (≈ 0.14 µM) | 50 (≈ 69.9 µM) | 0.2 (≈ 0.28 µM) | 0.39 (≈ 0.546 µM) | 0.39 (≈ 0.546 µM) | 0.39 (≈ 0.546 µM) | > 100 | 0.1 (≈ 0.14 µM) | MIC (Escherichia coli H560; Escherichia coli H560, BHI agar, 20-24 h): 12.5 µg/mL (≈ 17.5 µM); MIC ([4]; Pseudomonas aeruginosa K799/61, BHI agar, 20-24 h): 1.56 µg/mL (≈ 2.18 µM); MIC (Acinetobacter SP CMX 669; Acinetobacter SP CMX 669, BHI agar, 20-24 h): 12.5 µg/mL (≈ 17.5 µM); MIC (Escherichia coli JUHL; Escherichia coli, 24 h): 25 µg/mL (≈ 35 µM); MIC ([6]; Streptococcus, EES61, 24 h): 0.05 µg/mL (≈ 0.0699 µM); MIC ([7]; ATCC9341, BHI agar, read-out: MIC): 0.05 µg/mL (≈ 0.0699 µM); MIC (Escherichia coli DC-2; Escherichia coli, DC2, 24 h): 25 µg/mL (≈ 35 µM); MIC ([12]; ATCC13048, 24 h): > 100 µg/mL; MIC ([14]; Providencia stuartii, CMX640, 24 h): > 100 µg/mL; MIC ([15]; Klebsiella pneumoniae, ATCC8045, 24 h): 100 µg/mL (≈ 140 µM); MIC ([16]; Staphylococcus epidermidis, 3519, 24 h): 0.39 µg/mL (≈ 0.546 µM); MIC ([17]; read-out: MIC): 0.1 µg/mL (≈ 0.14 µM); MIC (Pseudomonas cepacia 2961; Burkholderia cepacia, 2961, 24 h): > 100 µg/mL
